This is an account of results in patent publication US12553889B2, “Small molecules targeting the intrinsically disordered structural ensemble of α-synuclein protect against diverse α-synuclein mediated dysfunctions” (The Regents of the University of California, priority 2019, dated 2026).

In the assay the target is αSyn (Homo sapiens, UniProt P37840). The assay can be described thus: αSyn fibrillization assay (Thioflavin T fluorescence). It counts as biochemical. Also noted: made in house; host or cells: E. coli BL21(DE3), pET-21d. To be noted: for impact on αSyn fibrillization (thioflavin fluorescence signal): compound at 300 μM, 70 μM αSyn, vs 0.5% DMSO control. The protocol: Fibrillization assays. Prior to each aggregation assay, purified αSyn at 5 mg/mL was treated with 6M guanidine and dialyzed 36 hours in a 3500 MW cutoff Slide-A-lyzer with three changes of 20 mM sodium phosphate and 100 mM NaCl pH 7.4 buffer. αSyn was centrifuged at 130,000 g for 40 minutes in a Beckman Ultracentrifuge to remove seeding species and supernatant used for assays. For initial testing, 60 mM compound in DMSO was diluted to 300 μM in 0.5% DMSO and controls contained equivalent DMSO concentrations. Assay samples contained 20 μM Thioflavin T, filtered through a 0.45 μm Acrodisc filter prior to each assay, 70 μM αSyn in 20 mM sodium phosphate and 100 mM NaCl pH 7.4. One teflon bead, (0.125″ PTFE, Grade 2 polished) was placed in each well of a 96 well black with clear bottom assay plate (Corning) in a total volume of 500 μL. The plate was sealed with Mylar and parafilm, placed at 37° C. in a Tecan F200Pro Plate Reader and shaken at an amplitude of 6 mm for 120 hours continuously except for a brief time during reading of the plate. Thioflavin T fluorescence was detected by excitation at 440 nm and reading emissions at 485 nm each 60 minutes throughout the assay. To generate αSyn seeds for the seeding assays, αSyn at 10 mg/mL was incubated with stirring at 43° C. for 24 hours followed by exhaustive sonication. 1% (by mass) of seeds were added to the fibrillization assay. Samples were plated in quadruplicate, and the replicates averaged for each experiment for plotted data. Data were analyzed in Excel using XL-fit sigmoidal model #600 and when normalized, comparing fluorescence values at 50 hours for compounds as a percentage of DMSO control.
α-Syn for the Fibrillization assay. Wildtype human αSyn was produced from a pET-21d plasmid (Millipore, Burlington, MA) in E. coli BL21(DE3) cells induced by addition of 1 mM […] and incubated at 16° C. overnight. Cells were harvested by centrifugation at 4,000×g for 10 minutes and stored at −80° C. Frozen cells expressing αSyn protein were resuspended in 50 mM Tris, pH 7.5, 1 mM TCEP, 1 mM EDTA, and 1 mM L-Methionine and lysed using a microfluidizer. Lysate was centrifuged at 7000×g for 0.5 hours at 21° C. The supernatant was boiled in a water bath for 15 minutes, cooled on ice and centrifuged at 45,000 g for 30 min. The supernatant was filtered through a 0.2 μm Corning filter and subjected to ion exchange chromatography using a Capto ImpRes Q (GE Healthcare, Upssala, Sweden) anion exchange (IEX) column at ambient temperature. The column was eluted with a gradient of 100 column volumes from 0 to 1M NaCl using an AKTA Explorer 100 Liquid Chromatography System (GE Healthcare, Uppsala, Sweden). Pure αSyn fractions were desalted to 50 mM KPO4, pH 7.5 and 50 mM NaCl using PD-10 columns (GE Healthcare, Chicago, IL) and concentrated to 5 mg/mL or 10 mg/ml (3K MWCO, Amicon Ultra, Millipore, Burlington, MA).
Statistical Analysis of compound activity in Fibrillization assays. For the analyses of compound activity in the αSyn fibrillization assay, the relative fluorescence unit (RFU) data obtained from compounds were compared to those of DMSO, to identify those that are statistically different from DMSO at various time points. Each experiment contained 4 replicates of each compound and of DMSO control. […] A repeated measures analysis of variance was performed on logarithmic transformed data using a linear mixed effects model which included Compound, Time, Replicate (Compound) and Compound*Time. The covariance structure across time that minimized the corrected Akaike Information Criterion (AICC) was used and the Kenward and Roger method was used to determine the appropriate degrees of freedom. Each compound mean was compared to the DMSO mean using Bonferroni multiplicity adjusted t-tests. Statistical analyses were conducted using the MIXED procedure in SAS 9.1 (SAS Institute Inc. Cary, NC, USA). Statistical significance refers to p-value<0.05.

Entries after “also recorded” stand apart in the source; their conditions may differ.

In the case of `Cc1c(-c2csc(NC(C(N)=O)C3CCNCC3)n2)sc2ccccc12` (stereo not shown) [Compound 573437, 2-((4-(3-methylbenzo[b]thiophen-2-yl)thiazol-2-yl)amino)-2-(piperidin-4-yl)acetamide], the “impact on αSyn fibrillization (thioflavin fluorescence signal)” value (“impact on αSyn fibrillization” for short) is on record as “missed by the more variable αSyn fibrillization assay”.
In the case of `CNC(=O)c1cc(O)ccc1N` [Compound 576755, 2-amino-5-hydroxy-N-methylbenzamide], the “impact on αSyn fibrillization” value was “inhibit fibrillization; also recorded: impair fibrillization”. The “inhibition of aggregation when used as control” value (over 30 synuclein fibrillization experiments) is “robust inhibition of aggregation in all assays”.
For the compound `CNC(=O)CN(C(=O)Cc1noc2ccccc12)C(C)c1ccc(Cl)cc1` (stereo not shown) [Compound 582032, 2-(benzo[d]isoxazol-3-yl)-N-(1-(4-chlorophenyl)ethyl)-N-(2-(methylamino)-2-oxoethyl)acetamide], the “impact on αSyn fibrillization” value is on record as “inhibit fibrillization; also recorded: impair fibrillization”.
